Measurements as given in US20200338084A1, “INHIBITORS OF LOW MOLECULAR WEIGHT PROTEIN TYROSINE PHOSPHATASE (LMPTP) AND USES THEREOF” (Sanford Burnham Prebys Medical Discovery Institute, priority 2018, published 2020).

The compounds below were run against T1, human LMPTP-A (Homo sapiens, UniProt P24666) (assay: Enzyme Assay of Inhibition of LMPTP-A). Conditions: phosphatase assay, OMFP or pNPP substrate, 50 mM Bis-Tris pH 6.0, 37° C.
T1 sequence (P24666 1-158): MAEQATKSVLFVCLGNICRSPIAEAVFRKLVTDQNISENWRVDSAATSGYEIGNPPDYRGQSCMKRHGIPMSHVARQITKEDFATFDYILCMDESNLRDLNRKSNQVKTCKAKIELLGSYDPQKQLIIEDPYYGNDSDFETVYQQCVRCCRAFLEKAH
Type: biochemical
Method: Phosphatase assays were performed in buffer containing 50 mM Bis-Tris, pH 6.0, 1 mM DTT and 0.01% Triton X-100 at 37° C. For assays conducted with 3-O-methylfluorescein phosphate (OMFP) as substrate, fluorescence was monitored continuously at λex=485 and λem=525 nm. For assays conducted with para-nitrophenylphosphate (pNPP) as substrate, the reaction was stopped by addition of 2× reaction volume of 1 M NaOH, and absorbance was measured at 405 nm. IC50 values of compounds disclosed herein were determined from plots of inhibitor concentration versus percentage of enzyme activity. For inhibitor selectivity assays, each PTP was incubated with either 0.4 mM OMFP or 5 mM pNPP in the presence of 40 μM compound or DMSO. […] For the inhibitor reversibility assay, 50 nM human LMPTP-A was pre-incubated with 10 μM of compound disclosed herein or DMSO for 5 min. The enzyme was diluted 100× in phosphatase assay buffer containing 0.4 mM OMFP and fluorescence was measured at the indicated time points.

Row | Compound | IC50 [µM]
1 | N#Cc1cccc(Cn2cnc(N)c3ncnc2-3)c1 [3-((6-amino-3H-purin-3-yl)methyl)benzonitrile] | 1 to 20
2 | CC(C)(C)c1ccccc1Nc1ncn(Cc2c(Cl)cccc2Cl)c2ncnc1-2 [{3-[(2,6-Dichlorophenyl)methyl](3-hydropurin-6-yl)}[2-(tert-butyl)phenyl]amine] | ≥ 20
3 | FC(F)(F)c1cccc(Nc2ncn(Cc3c(Cl)cccc3Cl)c3ncnc2-3)c1 [3-(2,6-dichlorobenzyl)-N-(3-(trifluoromethyl)phenyl)-3H-purin-6-amine] | 1 to 20
4 | Clc1cccc(Nc2ncn(Cc3c(Cl)cccc3Cl)c3ncnc2-3)c1Cl [(2,3-Dichlorophenyl){3-[(2,6-dichlorophenyl)methyl](3-hydropurin-6-yl)}amine] | 1 to 20
5 | CC(C)(C)c1cccc(Nc2ncn(Cc3c(Cl)cccc3Cl)c3ncnc2-3)c1 [{3-[(2,6-Dichlorophenyl)methyl](3-hydropurin-6-yl)}[3-(tert-butyl)phenyl]amine] | 1 to 20
6 | c1ccc(-n2cnc(NCc3ccco3)c3ncnc2-3)cc1 [(2-Furylmethyl)(3-phenyl(3-hydropurin-6-yl))amine] | ≥ 20
7 | Clc1ccc(Cn2cnc(NCc3ccco3)c3ncnc2-3)c(Cl)c1 [[3-(2,4-Dichloro-benzyl)-3H-purin-6-yl]-furan-2-ylmethyl-amine] | ≥ 20
8 | O=S(=O)(Cc1cccc(F)c1)Nc1ncn(Cc2c(Cl)cccc2Cl)c2ncnc1-2 [{3-[(2,6-dichlorophenyl)methyl](3-hydropurin-6-yl)}{[(3-fluorophenyl)methyl]sulfonyl}amine] | ≥ 20
9 | Nc1ncn(Cc2ccc(Br)cc2)c2ncnc1-2 [3-(4-Bromo-benzyl)-3H-purin-6-ylamine] | 1 to 20
10 | CCC(=O)Nc1ncn(Cc2c(Cl)cccc2Cl)c2ncnc1-2 [N-[3-(2,6-Dichloro-benzyl)-3 H-purin-6-yl]-propionamide] | 1 to 20
11 | FC(F)Oc1ccccc1Nc1ncn(Cc2c(Cl)cccc2Cl)c2ncnc1-2 [3-(2,6-dichlorobenzyl)-N-(2-(difluoromethoxy)plienyl)-3H-purin-6-amine] | 1 to 20
12 | Cc1ccc(CNc2ncn(Cc3c(Cl)cccc3Cl)c3ncnc2-3)cc1 [[3-(2,6-Dichloro-benzyl)-3H-purin-6-yl]-(4-methyl-benzyl)-amine] | 1 to 20
13 | Fc1cccc(F)c1Cn1cnc(NCc2ccco2)c2ncnc1-2 [[3-(2,6-Difluoro-benzyl)-3H-purin-6-yl]-furan-2-ylmethyl-amine] | 1 to 20
14 | Fc1ccc(Cn2cnc(NCc3ccco3)c3ncnc2-3)cc1 [[3-(4-Fluoro-benzyl)-3H-purin-6-yl]-furan-2-ylmethyl-amine] | ≥ 20
15 | Nc1ncn(Cc2cccc(F)c2)c2ncnc1-2 [3-(3-Fluoro-benzyl)-3H-purin-6-ylamine] | 1 to 20
16 | Nc1ncn(Cc2c(Cl)cccc2Cl)c2nc(-c3ccc4ocnc4c3)nc1-2 [8-Benzoxazol-5-yl-3-[(2,6-dichlorophenyl)methyl]-3-hydropurine-6-ylamine] | ≤ 1
17 | Nc1ncn(Cc2c(Cl)cccc2Cl)c2nc(C(c3ccccc3)c3ccccc3)nc1-2 [3-[(2,6-Dichlorophenyl)methyl]-8-(diphenylmethyl)-3-hydropurine-6-ylamine] | ≤ 1
18 | Nc1ncn(Cc2ccc(C(F)(F)F)cc2)c2ncnc1-2 [3-(4-(trifluoromethyl)benzyl)-3H-purin-6-amine] | 1 to 20
19 | Nc1ncn(Cc2c(Cl)cccc2Cl)c2nc(C3C4CC5CC(C4)CC3C5)nc1-2 (stereo not shown) [8-Adamantan-2-yl-3-[(2,6-dichlorophenyl)methyl]-3-hydropurine-6-ylamine] | ≤ 1
20 | 3-[(2,6-dichlorophenyl)methyl]-8-[(4-chlorophenyl)methyl]-3-hydropurine-6-ylamine | ≤ 1
21 | COc1cccc(-c2nc3c(N)ncn(Cc4c(Cl)cccc4Cl)c-3n2)c1 [3-[(2,6-Dichlorophenyl)methyl]-8-(3-methoxyphenyl)-3-hydropurine-6-ylamine] | ≤ 1
22 | COCCCNc1ncn(Cc2c(Cl)cccc2Cl)c2ncnc1-2 [[3-(2,6-Dichloro-benzyl)-3H-purin-6-yl]-(3-methoxy-propyl)-amine] | 1 to 20
